# From patent US4278687A, “Inhibition of biosynthesis of triglycerides by certain N-β-phenethyl-N-thienylalkylamines” (Shell Oil Company, priority 1980, dated 1981)
# Tested on: enzyme from pig adipose tissue (synthesis of triglycerides)
# Experiment: Inhibition of triglyceride synthesis by enzyme preparation from pig adipose tissue (14C-glycerol-3-phosphate incorporation)
# Type: biochemical
# Settings: test compound 1000 micrograms per milliliter, 5% DMSO, 8 minutes at 37° C; compared to controls without test compound; average of two animals
# Protocol: An enzyme was prepared by homogenizing one gram of slices from pig adipose tissue, each slice being approximately 0.3 mm thick, in one-milliliter portions of a liquid medium (Liquid A). The homogenate then was centrifuged (10.000 g×15 minutes), and the supernatant phase (the enzyme) was poured through cheesecloth to remove fat that had risen to the top of the centrifuge tubes.
# Liquid A had the following composition (in water):
# 0.15 M potassium chloride, 1 mM ethylenediaminetetracetic acid, […] Hepes (N-2-hydroxyethylpiperazine-N'-2-ethanesulfonic acid), 1 mM DTT (dithiothreitol), pH=7.0.
# A solution of the test compound (Liquid B) was prepared: 10 milligrams of test compound plus 0.5 milliliter dimethylsulfoxide (DMSO) plus 1.83 milliliters of glass-distilled water.
# A premix (Liquid C) was freshly prepared before each test, from the following components:
# 0.163 milliliter of Liquid B (containing the test compound, or for comparison omitting the test compound) was mixed with 0.1 milliliter of Liquid C, 0.05 milliliter of a solution of L-[U-^14 C] glycerol-3-phosphate (containing 5 microcuries of ^14 C per milliliter), 0.01 milliliter of 0.8 M potassium phosphate (pH=7.4), 0.07 milliliter of 0.2 M glycerol-3-phosphate (pH=7.4) and 0.047 milliliter of water. 0.25 milliliter of enzyme then was added. The final concentrations of DMSO and test compound were 5% and 1000 micrograms per milliliter, respectively. The mixture was incubated for 8 minutes at 37° C. A blank control without enzyme was incubated under the same conditions. Then, 3 milliliters of a 1:2 (v/v) mixture of chloroform and methanol was added and thoroughly mixed to terminate the reaction. After 10 minutes, 2 milliliters of chloroform and 1 milliliter of 0.1 N hydrochloric acid were added to the stirred mixture. The mixture was then centrifuged (275 g) for 5 minutes at room temperature. The top layer of the sample was siphoned off. Two milliliters of 0.1 N hydrochloric acid in 50% methanol/water was added, the mixture was centrifuged (275 g) and the top layer was carefully siphoned off. The resulting liquid (the chloroform phase) was transferred to a liquid scintillation vial and air dried. Ten milliliters of a 2:1 (v/v) mixture of toluene and Triton X-100 containing 0.27% New England Nuclear Omnifluor was added, and the radioactivity was determined in a liquid scintillation counter.
# Three replicates (samples of enzyme) were conducted per experiment (per animal). The results were reported as the average of the values obtained from the adipose tissue from two experiments (i.e., two different animals).
# The percent inhibition by the test compound compared to the controls (no test compound) was determined.
row,SMILES,Percent Inhibition
1,"CC(NCCC(c1ccccc1)c1ccsc1)C(O)c1ccccc1.Cl (stereo not drawn) [Compound 1, alpha-(1-(3-phenyl-3-(3-thienyl)propylamino)ethyl)-benzenemethanol, hydrochloride]",94
2,"Cl.OC(CNCC=C(c1ccsc1)c1ccsc1)c1cccc(C(F)(F)F)c1 (stereo not drawn) [Compound 2, alpha-((3,3-di-3-thienyl-2-propenylamino)methyl)-3-(trifluoromethyl)benzenemethanol, hydrochloride]",101
3,"CC(NCC=C(c1ccsc1)c1ccsc1)C(O)c1ccccc1.Cl (stereo not drawn) [Compound 3, alpha-(1-(3,3-di-3-thienyl-2-propenylamino)ethyl)-benzenemethanol, hydrochloride]",97
4,"Cl.OC(CNCCC(O)(c1ccccc1)c1ccsc1)c1ccc(Cl)cc1 (stereo not drawn) [Compound 4, alpha-(2-(2-(4-chlorophenyl)-2-hydroxyethylamino)-ethyl)-alpha-phenyl-3-thiophenemethanol, hydrochloride]",94
5,"CC(C)c1ccc(C(=CCNC(C)C(O)c2ccccc2)c2ccsc2)cc1.Cl (stereo not drawn) [Compound 5, alpha-(1-(3-(4-(1-methylethyl)-phenyl)-3-(3-thienyl)-2-propenylamino)ethyl)benzenemethanol, hydrochloride]",96
